The values below come from PubChem BioAssay (NCI).

Among the test systems are MDA-N; HCT-116 colon; RPMI-8226 leukemia; SK-MEL-5 melanoma; UACC-62 melanoma; KM12 colon; NCI-H460 lung; NCI/ADR-RES ovarian; HOP-92 NSCLC; SNB-19 CNS.
Holding throughout (assay): DTP human tumour cell line panel, 48 h

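Exposure lasted 48 hours, with cells grown in 96-well plates and compounds tested at five concentrations. TGI marks complete inhibition of growth.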

For `O=C(CNc1ccccc1[N+](=O)[O-])Nn1c(-c2ccccc2)nc2ccccc2c1=O`, the concentration for total growth inhibition (TGI) in the experiment on MDA-N was 57.9 µM; in the experiment on HCT-116 colon, 41.4 µM; in the experiment on RPMI-8226 leukemia, 89.5 µM; with SK-MEL-5 melanoma, 22.1 µM; in the experiment on UACC-62 melanoma, 23.4 µM; in the experiment with KM12 colon it was greater than 10 µM. Further, the TGI was 45.1 µM with NCI-H460 lung, 64.3 µM with NCI/ADR-RES ovarian, 28.3 µM in the experiment with HOP-92 NSCLC and 47.8 µM with SNB-19 CNS.

For the compound `CCN(CC)CCNC(=O)c1cn2c(ccc3sc4ccccc4c(=O)c32)n1`, the concentration for total growth inhibition (TGI) in the experiment on MDA-N is 28.4 µM; in the experiment on HCT-116 colon, 20.7 µM; in the experiment on RPMI-8226 leukemia, 29 µM; with SK-MEL-5 melanoma it was 22.9 µM; in the experiment on UACC-62 melanoma, 29.1 µM; in the experiment on KM12 colon it was 24.9 µM. Besides, the TGI was 14.9 µM in the experiment with NCI-H460 lung, 27.8 µM in the experiment with NCI/ADR-RES ovarian, 24.6 µM in the experiment on HOP-92 NSCLC and 27.5 µM with SNB-19 CNS.

Turning to `CC1C2(C)OC(=N)C(C#N)(C(c3cccc([N+](=O)[O-])c3)O2)C1(C#N)C#N` (stereo unspecified), the TGI in the experiment on MDA-N is 32.4 µM; in the experiment with HCT-116 colon it was 40.4 µM; in the experiment on SK-MEL-5 melanoma it was 20.9 µM; with UACC-62 melanoma it was 42.7 µM; in the experiment on KM12 colon, greater than 100 µM; with NCI-H460 lung, 29.7 µM. In addition, the figures for the TGI with NCI/ADR-RES ovarian, with HOP-92 NSCLC and in the experiment with SNB-19 CNS were greater than 100 µM, 33.1 µM and greater than 100 µM, respectively.

Take `Cc1noc(NC2=CC(=O)C(=O)c3ccccc32)c1C`: the TGI is 1.57 µM in the experiment on MDA-N; greater than 100 µM in the experiment with HCT-116 colon; 36 µM in the experiment on RPMI-8226 leukemia; 3.75 µM in the experiment with SK-MEL-5 melanoma; 22.9 µM in the experiment with UACC-62 melanoma; 32.7 µM in the experiment on KM12 colon. The TGI in the experiment on NCI-H460 lung was greater than 100 µM; with NCI/ADR-RES ovarian, 21.4 µM; in the experiment on HOP-92 NSCLC, 78.1 µM; in the experiment on SNB-19 CNS, greater than 100 µM.

Regarding `O=C(O)/C(Cc1ccc([N+](=O)[O-])cc1)=N\O`, the TGI in the experiment on MDA-N, in the experiment with HCT-116 colon, with RPMI-8226 leukemia, in the experiment with SK-MEL-5 melanoma, in the experiment on UACC-62 melanoma and in the experiment on KM12 colon was greater than 100 µM in each case. The TGI in the experiment on NCI-H460 lung, in the experiment on NCI/ADR-RES ovarian, with HOP-92 NSCLC and in the experiment on SNB-19 CNS was greater than 100 µM in each case.

In the case of `CC[C@H]1C=CCC[C@@]2(C[C@@H]3CC[C@H]4[C@@H](C(=O)OCCCCCCCCCCCCCCCC(=O)N(CCCN)C[C@@H](O)CCN)[C@@]5(CCC[C@@H](C)O5)NC(=[N+]34)N2)O1`, the total growth inhibition concentration (TGI) is 3.01 µM in the experiment with MDA-N; 2.96 µM with HCT-116 colon; 2.53 µM in the experiment on RPMI-8226 leukemia; 2.87 µM in the experiment on SK-MEL-5 melanoma; 3.5 µM in the experiment with UACC-62 melanoma; 2.91 µM in the experiment with KM12 colon. Moreover, the concentration for total growth inhibition (TGI) with NCI-H460 lung was 3.36 µM; in the experiment with NCI/ADR-RES ovarian it was greater than 10 µM; with HOP-92 NSCLC, 4.1 µM.

On to `Cc1ccc2oc(=O)c(C(=O)Nc3nc(C45CC6CC(CC(C6)C4)C5)cs3)cc2c1`, for which the total growth inhibition concentration (TGI) with MDA-N, in the experiment on HCT-116 colon, in the experiment on RPMI-8226 leukemia, in the experiment on SK-MEL-5 melanoma, with KM12 colon and in the experiment with NCI-H460 lung was greater than 100 µM throughout. For the same compound, the TGI in the experiment with NCI/ADR-RES ovarian, in the experiment with HOP-92 NSCLC and with SNB-19 CNS was greater than 100 µM in each case.

On to `CCOC(=O)CNc1nc(=O)c2c(=O)oc(Cl)cc2o1`, for which the TGI in the experiment on MDA-N is 48 µM; in the experiment on HCT-116 colon, 24.4 µM; in the experiment with SK-MEL-5 melanoma, greater than 100 µM; in the experiment with UACC-62 melanoma, 39.9 µM; in the experiment with KM12 colon, 55.3 µM; in the experiment on NCI-H460 lung, 36.2 µM. Moreover, the values for the TGI in the experiment on NCI/ADR-RES ovarian, in the experiment on HOP-92 NSCLC and with SNB-19 CNS were 50.3 µM, 19.5 µM and greater than 100 µM, respectively.

As to `COC(=O)[C@H](Cc1c[nH]c2ccccc12)NC(=O)c1ccc(CNC(=O)/C=C/c2cccc(Oc3ccccc3)c2)cc1`, the TGI in the experiment with MDA-N is 23.9 µM; in the experiment on HCT-116 colon, greater than 100 µM; with RPMI-8226 leukemia, greater than 100 µM; with SK-MEL-5 melanoma, greater than 100 µM; with UACC-62 melanoma, greater than 100 µM; in the experiment on KM12 colon, greater than 100 µM. Besides, the TGI in the experiment with NCI-H460 lung, with NCI/ADR-RES ovarian, with HOP-92 NSCLC and in the experiment with SNB-19 CNS was greater than 100 µM throughout.

On to `CC(C)C(/C=C/c1ccc(Cl)c(Cl)c1)=N\NC(=O)N/N=C(/C=C/c1ccc(Cl)c(Cl)c1)C(C)C`, for which the TGI in the experiment on MDA-N, in the experiment on RPMI-8226 leukemia, in the experiment on SK-MEL-5 melanoma, with UACC-62 melanoma, in the experiment on KM12 colon and in the experiment with NCI-H460 lung was greater than 100 µM each time. Besides, the TGI in the experiment on NCI/ADR-RES ovarian, in the experiment on HOP-92 NSCLC and in the experiment on SNB-19 CNS was greater than 100 µM throughout.

Regarding `CCOC(=O)C(NC(=O)c1ccccc1)(N1CCOCC1)C(F)(F)F` (stereo unspecified), the TGI in the experiment with MDA-N, in the experiment with HCT-116 colon, in the experiment on RPMI-8226 leukemia, in the experiment with SK-MEL-5 melanoma, with UACC-62 melanoma and in the experiment with KM12 colon was greater than 100 µM each time. Also, the TGI in the experiment on NCI/ADR-RES ovarian, in the experiment on HOP-92 NSCLC and in the experiment with SNB-19 CNS was greater than 100 µM in each case.

For the compound `CCNC(=O)c1c(O)c2ccccc2[nH]c1=O`, the concentration for total growth inhibition (TGI) in the experiment with MDA-N, in the experiment on HCT-116 colon, in the experiment with RPMI-8226 leukemia, with SK-MEL-5 melanoma, in the experiment with KM12 colon and in the experiment with NCI-H460 lung was greater than 100 µM each time. Moreover, the concentration for total growth inhibition (TGI) in the experiment on NCI/ADR-RES ovarian, with HOP-92 NSCLC and with SNB-19 CNS was greater than 100 µM throughout.

In the case of `COc1c(O)cc2c(c1O)C(=O)/C(=C/c1ccc(O)cc1)CO2`, the TGI is greater than 100 µM in the experiment on MDA-N; 37.2 µM in the experiment with RPMI-8226 leukemia; 59.6 µM with SK-MEL-5 melanoma; 40 µM with UACC-62 melanoma; 34.4 µM with KM12 colon; greater than 100 µM in the experiment on NCI-H460 lung. In addition, the TGI in the experiment on NCI/ADR-RES ovarian is 57 µM; in the experiment on HOP-92 NSCLC it was greater than 100 µM; with SNB-19 CNS, greater than 100 µM.

On to `Cc1ccc(/C(O)=C/c2nc3ccccc3s/c2=N/CS(=O)(=O)c2ccc(C)cc2)cc1`, for which the TGI in the experiment with MDA-N, in the experiment with HCT-116 colon, in the experiment with RPMI-8226 leukemia, in the experiment with SK-MEL-5 melanoma, with UACC-62 melanoma and in the experiment with KM12 colon was greater than 10 µM each time. The TGI with NCI/ADR-RES ovarian, with HOP-92 NSCLC and in the experiment on SNB-19 CNS was greater than 10 µM each time.

`Cc1csc(/N=C\c2c(O)c3ccccc3oc2=O)n1`: the TGI with MDA-N, in the experiment with HCT-116 colon, in the experiment with SK-MEL-5 melanoma, in the experiment with UACC-62 melanoma, in the experiment with KM12 colon and in the experiment on NCI/ADR-RES ovarian was greater than 100 µM throughout. Further, the results for the TGI with HOP-92 NSCLC and in the experiment with SNB-19 CNS were 89.8 µM and greater than 100 µM, respectively.

For `COc1cc2c(=O)cnoc2cc1O`, the TGI in the experiment on MDA-N, in the experiment with RPMI-8226 leukemia, in the experiment with SK-MEL-5 melanoma, in the experiment on UACC-62 melanoma, in the experiment on KM12 colon and in the experiment on NCI-H460 lung was greater than 100 µM in each case. Also, the TGI in the experiment with NCI/ADR-RES ovarian, with HOP-92 NSCLC and with SNB-19 CNS was greater than 100 µM in each case.

Consider `O=C1Nc2ccc(Cl)cc2/C1=C\c1c(Cl)nc2sccn12`, for which the TGI in the experiment with MDA-N is 8.42 µM; in the experiment on HCT-116 colon, 34 µM; in the experiment with RPMI-8226 leukemia it was greater than 100 µM; with KM12 colon, 23.4 µM; in the experiment on NCI/ADR-RES ovarian, 17.6 µM; with HOP-92 NSCLC it was greater than 100 µM. The TGI with SNB-19 CNS was greater than 100 µM.

Take `O=C1c2cc(Cl)ccc2NC(=NCCCl)C2CSCN12` (stereo unspecified): the TGI in the experiment on MDA-N, with HCT-116 colon, in the experiment with RPMI-8226 leukemia, with SK-MEL-5 melanoma, in the experiment on UACC-62 melanoma and with KM12 colon was greater than 100 µM each time. Further, the TGI in the experiment on NCI-H460 lung, in the experiment on NCI/ADR-RES ovarian and with SNB-19 CNS was greater than 100 µM in each case.

In the case of `CC1(C)C2CC(=O)C1(C)C(OCc1ccccc1)C2` (stereo unspecified), the TGI in the experiment with MDA-N was greater than 100 µM; in the experiment with HCT-116 colon, 66.1 µM; in the experiment with RPMI-8226 leukemia, greater than 100 µM; in the experiment with SK-MEL-5 melanoma, greater than 100 µM; in the experiment on UACC-62 melanoma, greater than 100 µM; in the experiment with KM12 colon it was greater than 100 µM. Besides, the TGI in the experiment with NCI-H460 lung, with NCI/ADR-RES ovarian and in the experiment with SNB-19 CNS was greater than 100 µM throughout.

Take `O=C1OC(=O)c2cc(S(=O)(=O)c3ccc4c(c3)C(=O)OC4=O)ccc21`: the TGI in the experiment with MDA-N, in the experiment with HCT-116 colon, in the experiment on RPMI-8226 leukemia, in the experiment on SK-MEL-5 melanoma, in the experiment with UACC-62 melanoma and in the experiment on KM12 colon was greater than 100 µM throughout. Further, the TGI in the experiment on NCI-H460 lung, in the experiment with NCI/ADR-RES ovarian and with SNB-19 CNS was greater than 100 µM in each case.

For `CC1=Nc2sc3c(c2C2=NCCN12)CCCC3`, the TGI in the experiment with MDA-N is 44.2 µM; with HCT-116 colon, 44.7 µM; in the experiment with RPMI-8226 leukemia, 46.9 µM; in the experiment on SK-MEL-5 melanoma, 77.4 µM; in the experiment with UACC-62 melanoma it was 32 µM; with KM12 colon, greater than 100 µM. For the same compound, the TGI with NCI-H460 lung is 39 µM; with NCI/ADR-RES ovarian, 54.4 µM; in the experiment on SNB-19 CNS, greater than 100 µM.
